Test results as given in PubChem BioAssay AID1918991 (Molecular Pharmacology Branch, DTP, NCI, 2023).

System: 186277-243-T-J2-PDC complex spheroid growth
Experiment: Anticancer human tumor 186277-243-T-J2-PDC patient-derived colon adenocarcinoma cell line growth inhibition [AhR]
Conditions: for IC50: curve of first compound; for viability, T/C: stronger effect = lower value; active = viability on the fitted dose curve at most 10% of control; inactive = the rest
Method in brief: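 Complex tumor spheroids co-cultured with HUVEC and human MSC stroma; AhR antagonists tested in combination with standard-of-care and investigational agents. Top concentration at or near clinical Cmax (else 10 microM), half-log dilutions; growth expressed as percent test/control.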

[1] = second compound 0.1 µM, first compound 0.0316 µM
[2] = second compound 0.1 µM, first compound 0.1 µM
[3] = second compound 0.316 µM, first compound 0.0316 µM
[4] = second compound 0.316 µM, first compound 0.1 µM
[5] = second compound 1 µM, first compound 0.0316 µM
[6] = second compound 1 µM, first compound 0.1 µM
[7] = second compound 3.16 µM, first compound 0.0316 µM
[8] = second compound 3.16 µM, first compound 0.1 µM
[9] = second compound 10 µM, first compound 0.0316 µM
[10] = second compound 10 µM, first compound 0.1 µM
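Note: spheroids exposed to compounds for seven days before the viability read.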
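Throughout, for viability, T/C: luminescent signal used as a stand-in for viable cell amount; 100% = DMSO vehicle control wells.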

CC[C@@]1(O)C(=O)OCc2c1cc1n(c2=O)Cc2cc3c(CN(C)C)c(O)ccc3nc2-1 + Cc1ccccc1N=Nc1ccc(NC(=O)c2ccnn2C)c(C)c1
inactive: viability, T/C (second compound 0.1 µM, first compound 0.000316 µM) 97.7% | viability, T/C (second compound 0.1 µM, first compound 0.001 µM) 113% | viability, T/C (second compound 0.1 µM, first compound 0.00316 µM) 107% | viability, T/C (second compound 0.1 µM, first compound 0.01 µM) 133% | viability, T/C [1] 119% | viability, T/C [2] 113% | viability, T/C (second compound 0.316 µM, first compound 0.000316 µM) 113% | viability, T/C (second compound 0.316 µM, first compound 0.001 µM) 101% | viability, T/C (second compound 0.316 µM, first compound 0.00316 µM) 113% | viability, T/C (second compound 0.316 µM, first compound 0.01 µM) 115% | viability, T/C [3] 114% | viability, T/C [4] 105% | viability, T/C (second compound 1 µM, first compound 0.000316 µM) 97.8% | viability, T/C (second compound 1 µM, first compound 0.001 µM) 103% | viability, T/C (second compound 1 µM, first compound 0.00316 µM) 110% | viability, T/C (second compound 1 µM, first compound 0.01 µM) 123% | viability, T/C [5] 116% | viability, T/C [6] 119% | viability, T/C (second compound 3.16 µM, first compound 0.000316 µM) 94.9% | viability, T/C (second compound 3.16 µM, first compound 0.001 µM) 92.9% | viability, T/C (second compound 3.16 µM, first compound 0.00316 µM) 116% | viability, T/C (second compound 3.16 µM, first compound 0.01 µM) 135% | viability, T/C [7] 107% | viability, T/C [8] 104% | viability, T/C (second compound 10 µM, first compound 0.000316 µM) 81.8% | viability, T/C (second compound 10 µM, first compound 0.001 µM) 92.2% | viability, T/C (second compound 10 µM, first compound 0.00316 µM) 98.1% | viability, T/C (second compound 10 µM, first compound 0.01 µM) 117% | viability, T/C [9] 90.5% | viability, T/C [10] 99.3%
> 100 nM: IC50 (second compound 0.1 µM) | IC50 (second compound 0.316 µM) | IC50 (second compound 1 µM) | IC50 (second compound 3.16 µM) | IC50 (second compound 10 µM)

Nc1ccccc1NC(=O)c1ccc(CNC(=O)OCc2cccnc2)cc1 + Cc1cncc(-c2nc(NCCc3c[nH]c4ccccc34)c3ncn(C(C)C)c3n2)c1
3740 nM: IC50 (second compound 1 µM)
3300 nM: IC50 (second compound 3.16 µM)
3060 nM: IC50 (second compound 0.316 µM)
active: viability, T/C (second compound 0.1 µM, first compound 10 µM) 8.44% | viability, T/C (second compound 0.316 µM, first compound 10 µM) 7.07% | viability, T/C (second compound 1 µM, first compound 10 µM) 8.57% | viability, T/C (second compound 3.16 µM, first compound 10 µM) 8.37% | viability, T/C (second compound 10 µM, first compound 3.16 µM) 2.97% | viability, T/C (second compound 10 µM, first compound 10 µM) 0.95%
3140 nM: IC50 (second compound 0.1 µM)
< 31.6 nM: IC50 (second compound 10 µM)
inactive: viability, T/C [1] 91.1% | viability, T/C [2] 94.1% | viability, T/C (second compound 0.1 µM, first compound 0.316 µM) 100% | viability, T/C (second compound 0.1 µM, first compound 1 µM) 96% | viability, T/C (second compound 0.1 µM, first compound 3.16 µM) 49.7% | viability, T/C [3] 101% | viability, T/C [4] 105% | viability, T/C (second compound 0.316 µM, first compound 0.316 µM) 101% | viability, T/C (second compound 0.316 µM, first compound 1 µM) 93.5% | viability, T/C (second compound 0.316 µM, first compound 3.16 µM) 48.8% | viability, T/C [5] 82% | viability, T/C [6] 114% | viability, T/C (second compound 1 µM, first compound 0.316 µM) 92.2% | viability, T/C (second compound 1 µM, first compound 1 µM) 111% | viability, T/C (second compound 1 µM, first compound 3.16 µM) 57.1% | viability, T/C [7] 94.1% | viability, T/C [8] 97.7% | viability, T/C (second compound 3.16 µM, first compound 0.316 µM) 93.1% | viability, T/C (second compound 3.16 µM, first compound 1 µM) 86.1% | viability, T/C (second compound 3.16 µM, first compound 3.16 µM) 51.6% | viability, T/C [9] 42.4% | viability, T/C [10] 36.9% | viability, T/C (second compound 10 µM, first compound 0.316 µM) 23.9% | viability, T/C (second compound 10 µM, first compound 1 µM) 10.1%

O=C(C=Cn1cnc(-c2cc(C(F)(F)F)cc(C(F)(F)F)c2)n1)NNc1cnccn1 + Cc1ccccc1N=Nc1ccc(NC(=O)c2ccnn2C)c(C)c1
inactive: viability, T/C (second compound 0.1 µM, first compound 0.00949 µM) 98.7% | viability, T/C (second compound 0.1 µM, first compound 0.03 µM) 107% | viability, T/C (second compound 0.1 µM, first compound 0.0949 µM) 101% | viability, T/C (second compound 0.1 µM, first compound 0.3 µM) 75.4% | viability, T/C (second compound 0.1 µM, first compound 0.949 µM) 16.8% | viability, T/C (second compound 0.316 µM, first compound 0.00949 µM) 94.2% | viability, T/C (second compound 0.316 µM, first compound 0.03 µM) 102% | viability, T/C (second compound 0.316 µM, first compound 0.0949 µM) 108% | viability, T/C (second compound 0.316 µM, first compound 0.3 µM) 77.7% | viability, T/C (second compound 0.316 µM, first compound 0.949 µM) 16.9% | viability, T/C (second compound 1 µM, first compound 0.00949 µM) 92.9% | viability, T/C (second compound 1 µM, first compound 0.03 µM) 106% | viability, T/C (second compound 1 µM, first compound 0.0949 µM) 108% | viability, T/C (second compound 1 µM, first compound 0.3 µM) 82.6% | viability, T/C (second compound 1 µM, first compound 0.949 µM) 18.7% | viability, T/C (second compound 3.16 µM, first compound 0.00949 µM) 96.4% | viability, T/C (second compound 3.16 µM, first compound 0.03 µM) 88.4% | viability, T/C (second compound 3.16 µM, first compound 0.0949 µM) 106% | viability, T/C (second compound 3.16 µM, first compound 0.3 µM) 71.7% | viability, T/C (second compound 3.16 µM, first compound 0.949 µM) 16.4% | viability, T/C (second compound 3.16 µM, first compound 3 µM) 10.3% | viability, T/C (second compound 10 µM, first compound 0.00949 µM) 90.2% | viability, T/C (second compound 10 µM, first compound 0.03 µM) 88% | viability, T/C (second compound 10 µM, first compound 0.0949 µM) 83.7% | viability, T/C (second compound 10 µM, first compound 0.3 µM) 63% | viability, T/C (second compound 10 µM, first compound 0.949 µM) 20.5% | viability, T/C (second compound 10 µM, first compound 3 µM) 12.7%
540 nM: IC50 (second compound 1 µM)
424 nM: IC50 (second compound 10 µM)
506 nM: IC50 (second compound 0.316 µM)
494 nM: IC50 (second compound 0.1 µM)
468 nM: IC50 (second compound 3.16 µM)
active: viability, T/C (second compound 0.1 µM, first compound 3 µM) 8.98% | viability, T/C (second compound 0.316 µM, first compound 3 µM) 7.87% | viability, T/C (second compound 1 µM, first compound 3 µM) 8.79%
